Data on 14 compounds can be found in patent US6127541A, “Imidazoquinazoline derivatives” (Kyowa Hakko Kogyo Co., Ltd., priority 1996, dated 2000).

Experiment [1] addresses T1, PDE V (cGMP-specific PDE) (Canis lupus familiaris, UniProt O77746).
T1 construct: purified from canine tracheal smooth muscle; from tissue; host or cells: canine tracheal smooth muscle
As to the kind of experiment: Inhibitory activity on PDE V derived from canine tracheal smooth muscle. To be noted: Compound conc.: 1 nM; substrate 1.0 μM [3H]cGMP; read-out: PDE V inhibitory activity, Inhibition rate (%). In kind it is biochemical. As to the method: Hereinafter, PDE inhibitory activity and pharmacological activity of the representative Compounds (I) are described in more detail by Test Examples. Test Example 1. The inhibitory activity on PDE derived from canine tracheal smooth muscle
(1) Purification of an Enzyme
According to the method of Torphy et al. [Mol. Pharmacol., 37, 206 (1990)], PDE V (cGMP-specific PDE) was purified from canine tracheal smooth muscle.
(2) Measurement of PDE Activity
The activity was measured based on the method of Kincaid et-al. [J. D. Corbin et al., Methods Enzymol., 159, 457(1988), Academic Press, New York]. The measurement was carried out using, as a substrate, 1.0 μM [^3 H]cGMP, and the reaction was carried out in a buffer having the following composition:
50 mM N,N-bis(2-hydroxyethyl)-2-aminoethanesulfonic acid (pH 7.2), 1 mM MgCl2, 0.1 mg/ml soybean trypsin inhibitor.
The reaction was started by addition of the enzyme and stopped by addition of hydrochloric acid after reacting for 10 to 30 minutes at 30° C. Thereafter, sodium hydroxide was added for neutralization and 5'-GMP was converted into guanosine using 5'-nucleotidase. The reaction solution was subjected to DEAE-Sephadex A-25 column. [^3 H]Guano sine was eluted with distilled water and the radioactivity was measured with a liquid scintillation counter. The inhibitor was dissolved in 1.7% DMSO.

Experiment [2] deals with rats. The experiment in a line: Hypotensive effect in anesthetized rats (mean blood pressure). In kind it is in vivo, male Sprague-Dawley rat. Particulars: rat, 10 mg/kg, i.d. N = 2; from value before administration (100%). As to the method: Test Example 2. The Hypotensive Effect in Rats
After a male Spraque-Dawley rat (two […]/group) anesthetized with urethane was fixed in the supine position, a cannula was inserted into trachea and the rat was artificially ventilated under the conditions of a tidal volume of […] and 60 breathes/min. The carotid artery and the duodenum were cannulated for measuring blood pressure and administering a drug, respectively. The drug was dissolved in distilled water and administered duodenally using the above cannula. Mean blood pressure (mBP) until […] after the drug-administration was measured and the maximum lowering rate (%) from the value before the drug-administration (100%) was determined. No change of mBP was observed during 30 minutes in case of administrating distilled water.

Experiment [3] concerns rats. As to the kind of experiment: Effect on developed cavernous pressure and duration of tumescence in rats. In kind it is in vivo, male Sprague-Dawley rat. To be noted: 20 μg/rat, injected into the cavernous body; for DCP (developed cavernous pressure), Pre / DT (duration of tumescence), Pre: before administration; for DCP (developed cavernous pressure), 6-min / DT (duration of tumescence), 6-min: six minutes after administration. The procedure: Test Example 3. Effect of Developed Cavernous Pressure and Duration of Tumescence in Rats
A male Sprague-Dawley rat was anesthetized with urethane (1.3 g/kg) subcutaneously injected into the back of the neck. The perineal incision was performed and the right crus of the penis was exposed. For measurement of cavernous pressure, a needle (25G) attached to a polyethylene tube (PE50) filled with a heparin solution was inserted into the right crus. The polyethylene tube was connected to a pressure transducer (MPC-500, Millar Instruments) and cavernous pressure was amplified with an amplifier (AP-621G, Nihon Kohden) and then recorded on a pen recorder (LR4220, Yokokawa Denki). The abdomen was incised and cavernous nerves on the prostate was exposed. The nerve was placed on a bipolar tungsten electrode and stimulated by current pulses(frequency; 20 Hz, duration; 0.2 ms, strength; 3 to 5 V) for 50 seconds with an electric stimulator (SEN-3201, Nihon Koden) to induce increases in cavernous pressure. The test compounds were dissolved in distilled water (DW) or 0.01 N hydrochloric acid at a concentration of 1 mg/ml and injected into the cavernous body(0.02 ml/rat) with a needle (27G). Before(Pre) and six minutes after administration (6-min). of distilled water (DW) or the test compounds, the nerve was stimulated, and developed cavernous pressure (DCP) and the duration of tumescence (DT) were measured. DT was defined as the time from the start of stimulation to 50% of the peak cavernous pressure after the end of stimulation.

Each structure is given as a SMILES string. Structures can show the parent of a compound that is named as a salt.

Consider `CCn1c(=S)[nH]c2cc3c(NCc4ccccc4N4CCOCC4)ncnc3cc21` [Compound 33, 3-Ethyl-8-(2-morpholinobenzylamino)-2,3-dihydro-1H-imidazo[4,5-g]quinazoline-2-thione 1 hydrochloride], for which, in experiment [1], the inhibition at 0.001 µM was 98%. `CCn1c(=S)[nH]c2cc3c(NCc4ccccc4NC)ncnc3cc21` [Compound 22, 3-Ethyl-8-(2-methylaminobenzylamino)-2,3-dihydro-1H-imidazo[4,5-g]quinazoline-2-thione 2 hydrochloride]: in experiment [1], the inhibition at 0.001 µM came out at 91%. As to `CCn1c(=S)[nH]c2cc3c(NCc4cccc(N5CCN(C)CC5)c4)ncnc3cc21` [Compound 40, 3-Ethyl-8-[3-(4-methyl-1-piperazinyl)benzylamino]-2,3-dihydro-1H-imidazo[4,5-g]quinazoline-2-thione 3 hydrochloride], the “Hypotensive activity, Maximum lowering rate (%) of mean blood pressure” value in the experiment on rats [2] is 16.1%. As for `CCn1c(=O)[nH]c2cc3c(NCc4ccccc4N4CCSCC4)ncnc3cc21` [Compound 15, 3-Ethyl-8-(2-thiomorpholinobenzylamino)-2,3-dihydro-1H-imidazo[4,5-g]quinazoline-2-one 1 hydrochloride], the “Hypotensive activity, Maximum lowering rate (%) of mean blood pressure” value in the experiment with rats [2] is reported as 19.8%. In the case of `CCNc1ccc(CNc2ncnc3cc4c(cc23)[nH]c(=S)n4CC)cc1` [Compound 27, 3-Ethyl-8-(4-ethylaminobenzylamino)-2,3-dihydro-1H-imidazo[4,5-g]quinazoline-2-thione 2 hydrochloride], in experiment [1], the inhibition at 0.001 µM came to 97%. The same measure, in the same setting: the same measure for `CCn1c(=O)[nH]c2cc3c(NCc4ccc(NCc5ccccc5)cc4)ncnc3cc21` [Compound 3, 8-(4-Benzylaminobenzylamino)-3-ethyl-2,3-dihydro-1H-imidazo[4,5-g]quinazoline-2-one 2 hydrochloride]: 62%. `CCn1c(=S)[nH]c2cc3c(NCc4ccccc4N4CCC(CO)CC4)ncnc3cc21` [Compound 34, 3-Ethyl-8-[2-(4-hydroxymethylpiperidino)benzylamino]-2,3-dihydro-1H-imidazo[4,5-g]quinazoline-2-thione 2 hydrochloride]: in the experiment with rats [3], the “DCP (developed cavernous pressure), Pre” value is 23.9 ± 2.0 mmHg; the “DT (duration of tumescence), Pre” value came out at 3.3 ± 0.9 s; the “DCP (developed cavernous pressure), 6-min” value (shortened to “DCP … 6-min”) is listed as 31.1 ± 4.7 mmHg; the “DT (duration of tumescence), 6-min” value was 16.9 ± 2.4 s. For the same compound, the inhibition at 0.001 µM in experiment [1] was 95%. In the case of `CCn1c(=S)[nH]c2cc3c(NCc4ccc(NCc5ccccc5)cc4)ncnc3cc21` [Compound 24, 8-(4-Benzylaminobenzylamino)-3-ethyl-2,3-dihydro-1H-imidazo[4,5-g]quinazoline-2-thione 2 hydrochloride], in experiment [1], the inhibition at 0.001 µM was determined as 88%. Consider `CCn1c(=O)[nH]c2cc3c(NCc4ccc(NC)cc4)ncnc3cc21` [Compound 2, 3-Ethyl-8-(4-methylaminobenzylamino)-2,3-dihydro-1H-imidazo[4,5-g]quinazoline-2-one 2 hydrochloride], for which, in the experiment on rats [2], the “Hypotensive activity, Maximum lowering rate (%) of mean blood pressure” value was found to be 19.7%.

With `CCn1c(=S)[nH]c2cc3c(NCc4ccccc4N4CCCCC4)ncnc3cc21` [Compound 35, 3-Ethyl-8-(2-piperidinobenzylamino)-2,3-dihydro-1H-imidazo[4,5-g]quinazoline-2-thione 2 hydrochloride], in the experiment on rats [3], the “DCP (developed cavernous pressure), Pre” value was found to be 22.6 mmHg; the “DT (duration of tumescence), Pre” value worked out at 1.6 s; the “DCP … 6-min” value was 21.2 mmHg; the “DT (duration of tumescence), 6-min” value amounted to 8.1 s. In experiment [1], the inhibition at 0.001 µM amounted to 95%.

For the compound `CCn1c(=S)[nH]c2cc3c(NCc4ccccc4N4CCN(C)CC4)ncnc3cc21` [Compound 36, 3-Ethyl-8-[2-(4-methyl-1-piperazinyl)benzylamino]-2,3-dihydro-1H-imidazo[4,5-g]quinazoline-2-thione 3 hydrochloride], the “Hypotensive activity, Maximum lowering rate (%) of mean blood pressure” value with rats [2] is listed as 17.6%.

For `CCn1c(=S)[nH]c2cc3c(NCc4ccccc4NCCO)ncnc3cc21` [Compound 30, 3-Ethyl-8-[2-(2-hydroxyethylamino)benzylamino]-2,3-dihydro-1H-imidazo[4,5-g]quinazoline-2-thione 2 hydrochloride], the inhibition at 0.001 µM in experiment [1] was determined as 97%. For the compound `CCCNc1ccc(CNc2ncnc3cc4c(cc23)[nH]c(=S)n4CC)cc1` [Compound 26, 3-Ethyl-8-(4-propylaminobenzylamino)-2,3-dihydro-1H-imidazo[4,5-g]quinazoline-2-thione 2 hydrochloride], in the experiment with rats [3], the “DCP (developed cavernous pressure), Pre” value was determined as 21.5 mmHg; the “DT (duration of tumescence), Pre” value is 3.8 s; the “DCP … 6-min” value was 27.7 mmHg; the “DT (duration of tumescence), 6-min” value came to 22.9 s. In the case of `CCNc1ccc(CNc2ncnc3cc4c(cc23)[nH]c(=O)n4CC)cc1` [Compound 6, 3-Ethyl-8-(4-ethylaminobenzylamino)-2,3-dihydro-1H-imidazo[4,5-g]quinazoline-2-one 2 hydrochloride], the inhibition at 0.001 µM in experiment [1] came out at 37%.

Usually inhibition stands for the change of the read-out against control, counted positive when it falls.
